Values quoted from earlier work as cited in patent US6486128B1, “Method of using emamectin to treat fish parasites” (Schering-Plough Veterinary Corporation, priority 1999, dated 2002).

Experiments:
sea lice = settings: commonly adopted dose rate of 25 μg kg^−1 biomass twice weekly; cited from earlier work
[1] = orally administered; cited from earlier work

For 22,23-dihydroavermectin B1 [ivermectin], the “control of sea lice” value (sea lice) is given as “some control” and the “levels found to be toxic” value [1] is given as “greater than 25 μg kg^−1 biomass twice weekly”.
